Literature values, collected in patent publication US20130309199A1, “Novel Treatment of Multiple Sclerosis (MS)” (priority 2010, published 2013).

Columns and labels:
detrusor instability = settings: cited from earlier work
[1] = tested on: active multiple sclerosis lesions; settings: gadolinium-enhanced MR images; cited from earlier work

| Compound | side effects occurred (detrusor instability; compared with five on placebo, P less than 0.025) | tolerability (detrusor instability; in vivo) | frequency (detrusor instability; vs placebo, P less than 0.001) | detrusor-pressure rise during bladder filling (detrusor instability; vs placebo, P less than 0.01) | urge incontinence (detrusor instability; vs placebo, P less than 0.025) | urgency (detrusor instability; vs placebo, P less than 0.025) | suppression of active multiple sclerosis lesions [1] |
| --- | --- | --- | --- | --- | --- | --- | --- |
| CC(C(=O)O)c1ccc(-c2ccccc2)c(F)c1 (racemic) [Flurbiprofen] | 13 patients | well tolerated by most patients | significantly reduced | significantly reduced | significantly reduced | significantly reduced | – |
| CC(C)Cc1ccc(C(C)C(=O)O)cc1 (stereo not shown) [Ibuprofen] | – | – | – | – | – | – | does not suppress |
